Measured values as given in paper PMC6150197, “NeoBOMB1, a GRPR-Antagonist for Breast Cancer Theragnostics: First Results of a Preclinical Study with [^67Ga]NeoBOMB1 in T-47D Cells and Tumor-Bearing Mice” (Molecules : A Journal of Synthetic Chemistry and Natural …, 2017).
Read-outs that look alike come from different tables or passages of the source. Square brackets hold non-standard residues; d marks the D form. * marks the point of attachment. DOTA = O=C(O)CN1CCN(CC(=O)O)CCN(CC(=O)*)CCN(CC(=O)O)CC1

Target: T1, GRPR (Homo sapiens, UniProt P30550)
T1 construct: Human ductal breast carcinoma T-47D cells endogenously expressing the GRPR were used in all biological assays; endogenous in cells; host or cells: T-47D human ductal breast carcinoma cells (live, adherent, 4 °C)
Assay: Competition binding against [^125I-Tyr^4]BBN in T-47D cells
Procedure: Methionine was added to the purified radioligand solution to prevent re-oxidation of Met^14 to the corresponding sulfoxide and the resulting stock solution in 0.1% BSA-PBS was kept at −20 °C; aliquots thereof were used for competition binding assays (specific activity of 2.2 Ci/μmol). Samples were measured for radioactivity in an automatic well-type gamma counter (NaI(Tl)] crystal, Canberra Packard Auto-Gamma 5000 series instrument, Schwadorf, Austria).
Human ductal breast carcinoma T-47D cells endogenously expressing the GRPR were used in all biological assays [14, 22, 23]. Cells were cultured in RPMI supplemented with 10% FBS, 100 U/mL penicillin and 100 µg/mL streptomycin, and kept in a controlled humidified atmosphere containing 5% CO2 at 37 °C. Passages were performed weekly using a trypsin/EDTA (0.05%/0.02% w/v) solution.
Cells were seeded in 12-well plates 24 h in advance (0.6 × 10^6 cells per well). On the day of the experiment, cells were placed on ice and washed with chilled washing medium (2 × 1 mL, RPMI supplemented with 1% heat inactivated FBS). […] Lysates were collected, combined and counted for their radioactivity content in a γ-counter. The IC50 values were calculated adopting nonlinear regression according to a one-site model applying the PRISM^TM 2 program (GraphPad Software, San Diego, CA, USA). […]

T1 sequence (P30550 whole entry): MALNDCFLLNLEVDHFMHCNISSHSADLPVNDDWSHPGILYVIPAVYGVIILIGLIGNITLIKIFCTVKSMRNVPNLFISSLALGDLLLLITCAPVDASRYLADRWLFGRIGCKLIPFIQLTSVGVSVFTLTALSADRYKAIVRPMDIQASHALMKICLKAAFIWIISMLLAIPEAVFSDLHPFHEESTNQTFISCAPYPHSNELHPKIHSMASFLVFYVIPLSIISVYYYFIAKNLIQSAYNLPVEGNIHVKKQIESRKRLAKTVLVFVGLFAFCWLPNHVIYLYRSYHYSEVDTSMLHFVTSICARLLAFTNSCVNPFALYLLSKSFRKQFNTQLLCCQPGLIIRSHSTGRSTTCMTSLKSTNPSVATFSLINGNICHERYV

Compound | IC50 | IC50 (live T-47D cells, 3 h incubation at 4 °C, one-site model, mean ± sd, n = 3 (n = 5 for [Tyr^4]BBN), in triplicate, read-out: IC50, displacement of [^125I-Tyr^4]BBN from GRPR-sites on T-47D cells)
CC(C)CC(CC(C)C)NC(=O)[C@H](Cc1cnc[nH]1)NC(=O)CNC(=O)[C@@H](NC(=O)[C@H](C)NC(=O)[C@H](Cc1c[nH]c2ccccc12)NC(=O)[C@H](CCC(N)=O)NC(=O)[C@@H](Cc1ccccc1)NC(=O)COCC(=O)Nc1ccc(CNC(=O)CN2CCN(CC(=O)O)CCN(CC(=O)O)CCN(CC(=O)O)CC2)cc1)C(C)C [NeoBOMB1, DOTA-p-aminomethylaniline-diglycolic acid-DPhe-Gln-Trp-Ala-Val-Gly-His-NH-CH[CH2-CH(CH3)2]2] | 2.2 ± 0.2 nM | –
[^natGa]NeoBOMB1: NeoBOMB1 metalated with ^natGa ({DOTA-p‑aminomethylaniline-diglycolic acid}-[dF]QWAVGH-{2,6‑dimethylheptan‑4‑yl amide}; also: DOTA chelating natGa(III)) | – | 2.5 ± 0.2 nM
